The values that follow come from ChEMBL document CHEMBL1201862, “PubChem BioAssay data set” (2004).

Calls of active or inactive are those of the source.

Test [1] has as its target Serine/threonine-protein phosphatase (Homo sapiens, UniProt Q9BPW0). The test can be described thus: inhibition of protein phosphatase 5 activity – biochemical, fluorescence, dose response (AID 2395).
The target in test [2] is T1, Sentrin-specific protease 8 (Homo sapiens, UniProt Q96LD8).
T1 sequence (Q96LD8 whole entry): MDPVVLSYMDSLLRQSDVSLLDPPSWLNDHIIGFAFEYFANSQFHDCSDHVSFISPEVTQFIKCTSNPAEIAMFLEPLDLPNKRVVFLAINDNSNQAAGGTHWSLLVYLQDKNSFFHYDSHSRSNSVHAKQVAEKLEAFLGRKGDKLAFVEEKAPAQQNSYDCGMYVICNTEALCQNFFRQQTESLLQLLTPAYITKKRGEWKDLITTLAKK
The class given is functional.

Test [3] concerns the target T1, Sentrin-specific protease 8. Type of test: functional. The source holds these as a separate data set.
Test [4] can be described thus: alpha-synuclein stem-loop luciferase translation blockers – H4 neuroglioma cells, luminescence, confirmation (AID 1988). Type of test: functional, cell-based.
Test [5] can be described thus: Luminescence Cell-Based Dose Response HTS to Identify Inhibitors of 5'UTR Stem-Loop Driven Prion Protein mRNA Translation in H4 Neuroglioblastoma Cells. [Related pubchem assays: 1827 (Project Summary), 1813 (Primary HTS)]. Type of test: functional.
Test [6] concerns Streptococcus sp. 'group A'. Kind of test: Streptococcus pyogenes SK(-)GAS viability under kanamycin – luminescence, BacTiterGlo, confirmation, counter-screen for streptokinase expression inhibitor project, dose response (AID 1900). The class given is functional, organism-based. On the technique in general: A counterscreen serves to expose hits that act by an unwanted route or on another target.

A further test concerns INS1. Kind of test: INS-1E survival protection against cytokine death – cell-based, luminescence, retest, dose response (AID 449756).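 Also: cell death triggered by IL-1 beta plus TNF-alpha plus IFN-gamma mixture; protective hits raise ATP signal compared with cytokine alone wells.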 The note with it: Rattus norvegicus. Type of test: functional.
In another test the target is Genome polyprotein (dengue virus type 2, UniProt P29990). The test can be described thus: flavivirus cap methylation enzyme inhibition – biochemical, confirmation dose response, primary screen (AID 588689). The class given is functional.
Test [7] deals with Dual specificity tyrosine-phosphorylation-regulated kinase 1A (Rattus norvegicus, UniProt Q63470). The class given is biochemical, Homo sapiens.
Another test deals with T2, Hexokinase HKDC1 (Homo sapiens, UniProt Q2TB90).
T2 sequence (Q2TB90 whole entry): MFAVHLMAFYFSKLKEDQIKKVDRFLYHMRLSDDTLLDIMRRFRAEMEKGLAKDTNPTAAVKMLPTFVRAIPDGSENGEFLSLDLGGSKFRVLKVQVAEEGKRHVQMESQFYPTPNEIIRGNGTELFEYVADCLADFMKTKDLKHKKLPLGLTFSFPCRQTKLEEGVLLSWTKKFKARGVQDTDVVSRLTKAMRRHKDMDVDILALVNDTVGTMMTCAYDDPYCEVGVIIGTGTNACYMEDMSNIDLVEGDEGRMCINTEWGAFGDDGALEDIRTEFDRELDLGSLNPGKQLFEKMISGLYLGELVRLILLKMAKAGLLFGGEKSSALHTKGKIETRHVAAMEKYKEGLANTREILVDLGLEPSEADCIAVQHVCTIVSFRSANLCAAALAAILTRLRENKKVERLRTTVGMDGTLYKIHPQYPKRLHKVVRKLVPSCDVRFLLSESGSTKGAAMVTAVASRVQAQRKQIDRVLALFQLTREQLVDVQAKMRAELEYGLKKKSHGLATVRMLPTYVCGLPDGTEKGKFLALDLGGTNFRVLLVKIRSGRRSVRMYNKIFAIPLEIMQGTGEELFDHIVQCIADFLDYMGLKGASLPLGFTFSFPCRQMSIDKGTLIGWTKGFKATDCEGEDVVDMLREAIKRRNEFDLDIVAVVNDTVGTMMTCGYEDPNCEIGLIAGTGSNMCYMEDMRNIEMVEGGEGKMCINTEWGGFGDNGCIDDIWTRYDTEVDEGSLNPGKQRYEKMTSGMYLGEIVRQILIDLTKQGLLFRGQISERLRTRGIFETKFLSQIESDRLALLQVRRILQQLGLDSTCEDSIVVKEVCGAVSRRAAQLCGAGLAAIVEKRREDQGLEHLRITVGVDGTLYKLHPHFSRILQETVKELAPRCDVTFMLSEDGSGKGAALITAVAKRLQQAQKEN
Kind of test: inhibition of HKDC1 glucose phosphorylation – biochemical, W721R variant, dose response (AID 504729). Type of test: functional.

The target of test [8] is T3, SUMO-activating enzyme (Homo sapiens, UniProt Q9UBT2). Kind of test: blockers of SAE1/SAE2–UBC9 SUMO transfer – biochemical, HTRF, uHTS, primary screen (AID 2006). The class given is protein-complex assay.
Test [9] concerns the target T4, Long-chain-fatty-acid--AMP ligase FadD28 (Mycobacterium tuberculosis, UniProt P9WQ59).
T4 sequence (P9WQ59 whole entry): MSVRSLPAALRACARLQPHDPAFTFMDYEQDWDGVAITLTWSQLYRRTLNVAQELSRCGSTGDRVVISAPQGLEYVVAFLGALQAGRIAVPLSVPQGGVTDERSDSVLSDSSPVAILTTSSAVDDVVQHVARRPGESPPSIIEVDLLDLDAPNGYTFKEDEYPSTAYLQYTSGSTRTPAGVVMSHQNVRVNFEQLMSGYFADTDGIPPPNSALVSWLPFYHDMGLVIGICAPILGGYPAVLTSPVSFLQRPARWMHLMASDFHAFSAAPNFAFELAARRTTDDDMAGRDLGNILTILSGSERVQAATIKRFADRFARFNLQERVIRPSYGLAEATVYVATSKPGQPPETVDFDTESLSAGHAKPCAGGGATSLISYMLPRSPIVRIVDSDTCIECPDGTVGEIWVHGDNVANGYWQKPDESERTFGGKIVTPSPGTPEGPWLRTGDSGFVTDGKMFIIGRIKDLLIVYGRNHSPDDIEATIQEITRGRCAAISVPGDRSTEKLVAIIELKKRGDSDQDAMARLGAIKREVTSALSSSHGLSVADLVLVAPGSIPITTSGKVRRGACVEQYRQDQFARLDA
The test can be described thus: Fluorescence polarization aasay to screen for inhibitors that compete for the binding of FadD28 to a bisubstrate Measured in Biochemical System Using Plate Reader - 2147-01_Inhibitor_Dose_CherryPick_Activity. The class given is functional, Mycobacterium tuberculosis H37Rv.

Test [10] addresses T3, SUMO-activating enzyme. The test can be described thus: blockers of UBC9-mediated SUMO conjugation – biochemical, AlphaScreen, SUMOylation inhibitor project, confirmation (AID 2018). Type of test: functional. Background: Alpha assays give light when donor and acceptor beads are brought close together.

T3 sequence (Q9UBE0 whole entry): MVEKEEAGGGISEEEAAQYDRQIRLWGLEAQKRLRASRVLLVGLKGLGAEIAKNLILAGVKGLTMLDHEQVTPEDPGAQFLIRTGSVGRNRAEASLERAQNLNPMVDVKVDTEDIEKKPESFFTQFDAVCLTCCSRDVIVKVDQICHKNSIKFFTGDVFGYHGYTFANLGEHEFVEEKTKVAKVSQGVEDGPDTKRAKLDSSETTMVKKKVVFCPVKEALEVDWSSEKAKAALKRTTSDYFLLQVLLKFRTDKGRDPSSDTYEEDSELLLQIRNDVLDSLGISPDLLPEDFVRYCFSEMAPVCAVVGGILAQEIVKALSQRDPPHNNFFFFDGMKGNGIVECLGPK
T3 sequence (Q9UBT2 whole entry): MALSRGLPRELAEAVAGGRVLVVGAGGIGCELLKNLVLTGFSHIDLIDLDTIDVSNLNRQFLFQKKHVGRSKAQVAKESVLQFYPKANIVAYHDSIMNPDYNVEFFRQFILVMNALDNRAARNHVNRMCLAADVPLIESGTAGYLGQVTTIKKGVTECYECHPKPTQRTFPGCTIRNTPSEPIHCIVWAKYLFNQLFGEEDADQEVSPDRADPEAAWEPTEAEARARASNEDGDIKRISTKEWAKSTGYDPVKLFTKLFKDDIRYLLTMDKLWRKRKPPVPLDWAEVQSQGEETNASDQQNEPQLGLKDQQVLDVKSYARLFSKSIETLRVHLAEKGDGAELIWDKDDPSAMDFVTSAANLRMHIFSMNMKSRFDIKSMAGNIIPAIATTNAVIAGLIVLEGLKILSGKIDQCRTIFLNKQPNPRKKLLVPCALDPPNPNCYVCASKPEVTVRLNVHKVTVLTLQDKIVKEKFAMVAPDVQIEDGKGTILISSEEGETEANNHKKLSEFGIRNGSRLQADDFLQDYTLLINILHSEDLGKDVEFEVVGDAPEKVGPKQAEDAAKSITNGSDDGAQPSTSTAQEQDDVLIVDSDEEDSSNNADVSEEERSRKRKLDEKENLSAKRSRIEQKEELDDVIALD
Serine/threonine-protein phosphatase, sequence (Q9BPW0 whole entry): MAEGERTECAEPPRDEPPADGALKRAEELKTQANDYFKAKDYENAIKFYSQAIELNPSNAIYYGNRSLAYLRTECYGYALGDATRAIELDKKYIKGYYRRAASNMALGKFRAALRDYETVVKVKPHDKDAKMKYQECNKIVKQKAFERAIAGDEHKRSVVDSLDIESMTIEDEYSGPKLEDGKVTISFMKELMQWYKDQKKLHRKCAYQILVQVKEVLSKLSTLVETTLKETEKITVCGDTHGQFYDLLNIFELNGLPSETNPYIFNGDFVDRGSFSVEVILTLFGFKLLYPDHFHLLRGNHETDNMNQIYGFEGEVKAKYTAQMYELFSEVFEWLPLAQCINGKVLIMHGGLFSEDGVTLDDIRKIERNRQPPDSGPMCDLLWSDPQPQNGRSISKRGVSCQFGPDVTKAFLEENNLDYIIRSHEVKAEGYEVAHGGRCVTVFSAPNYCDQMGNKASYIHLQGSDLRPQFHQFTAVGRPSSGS
Genome polyprotein, sequence (P29990 2492-3391 limits assumed): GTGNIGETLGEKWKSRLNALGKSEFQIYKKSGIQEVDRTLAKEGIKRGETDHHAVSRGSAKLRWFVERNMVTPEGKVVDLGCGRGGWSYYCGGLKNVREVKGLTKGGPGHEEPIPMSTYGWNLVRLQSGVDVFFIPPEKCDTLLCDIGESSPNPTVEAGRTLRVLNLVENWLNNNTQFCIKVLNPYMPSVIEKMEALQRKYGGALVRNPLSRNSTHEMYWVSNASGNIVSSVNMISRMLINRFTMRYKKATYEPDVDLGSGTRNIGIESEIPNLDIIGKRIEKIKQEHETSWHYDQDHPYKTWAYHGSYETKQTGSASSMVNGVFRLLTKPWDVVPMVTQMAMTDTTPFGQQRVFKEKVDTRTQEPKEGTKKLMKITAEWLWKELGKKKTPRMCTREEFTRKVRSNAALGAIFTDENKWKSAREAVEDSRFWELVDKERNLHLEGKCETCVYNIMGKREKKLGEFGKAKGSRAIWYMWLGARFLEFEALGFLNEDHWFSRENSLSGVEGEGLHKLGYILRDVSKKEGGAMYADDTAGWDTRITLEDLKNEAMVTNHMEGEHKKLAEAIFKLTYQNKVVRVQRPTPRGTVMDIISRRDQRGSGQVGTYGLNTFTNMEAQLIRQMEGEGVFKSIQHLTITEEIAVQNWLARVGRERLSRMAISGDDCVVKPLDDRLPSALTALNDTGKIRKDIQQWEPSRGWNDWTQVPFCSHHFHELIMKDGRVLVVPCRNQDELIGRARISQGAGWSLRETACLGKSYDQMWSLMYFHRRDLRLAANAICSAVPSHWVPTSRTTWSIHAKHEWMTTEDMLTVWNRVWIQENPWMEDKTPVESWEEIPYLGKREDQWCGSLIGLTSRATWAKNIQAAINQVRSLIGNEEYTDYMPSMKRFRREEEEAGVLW

Take `COc1ccc(NC(=S)Nc2ccc3nsnc3c2)cc1`: the IC50 is > 2.48 µM (active) in [1], 2.3 µM (active) in [2] and 6.61 µM (active) in test [3].
For the molecule `CC(C)(C)c1cc[n+](C2=C([N-]S(=O)(=O)c3ccccc3)C(=O)c3ccccc3C2=O)cc1`, the EC50 in test [4] is 9.04 µM (active); in test [5], 25 µM (active); in [6], 4.89 µM (active). Also, in the test with INS1, the half-maximal activity concentration (AC50) is 14.5 µM (active).
`O=C1C=C(Nc2ccccc2C(=O)O)c2ccccc2C1=O`: the IC50 was > 100 µM (active) on Genome polyprotein, 12.4 µM (active) on Hexokinase HKDC1, 19.8 µM (active) at SUMO-activating enzyme [8] and 1.9 µM (active) on SUMO-activating enzyme [10]. Also, the AC50 in test [7] is 6.25 µM (active); in [9] it was > 100 µM (inactive).

Broadly, the IC50 is the concentration that inhibits the measured activity by half. What is called EC50 is the concentration at which the effect is half-maximal. As a reminder, the AC50 is the concentration at which the activity in the assay is half-maximal.
